Measured values published in EP2257297B1, “COMPOUNDS FOR USE IN THE TREATMENT OF ACNE, SEBORRHOEA AND SEBHORROEIC DERMATITIS, OR FOR REDUCING SEBUM SECRETION” (priority 2008, dated 2009).

molecular target: T1, human MC5R (Homo sapiens, UniProt P33032); experiment: Human MC5R radioligand binding assay ([125I] NDP-MSH displacement, hMC5R membranes); conditions: hMC5R assay as in Example 102; compounds tested as trifluoroacetate or hydrochloride salts, or as free base
T1 construct: purchased Perkin Elmer RBXMC5M400UA
T1 sequence (P33032 whole entry): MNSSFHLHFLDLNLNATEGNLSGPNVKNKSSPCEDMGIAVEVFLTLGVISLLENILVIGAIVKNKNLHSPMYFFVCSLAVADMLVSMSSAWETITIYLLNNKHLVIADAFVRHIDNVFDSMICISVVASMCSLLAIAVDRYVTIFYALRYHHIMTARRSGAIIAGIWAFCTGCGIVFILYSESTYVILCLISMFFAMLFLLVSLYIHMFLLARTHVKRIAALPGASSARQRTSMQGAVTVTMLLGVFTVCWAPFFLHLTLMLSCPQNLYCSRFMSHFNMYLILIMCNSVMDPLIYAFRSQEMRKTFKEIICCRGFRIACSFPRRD
Method in brief: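 Bound ligand collected by filtration on PEI-soaked GF/A filters and counted. Data fitted to a single-site competition model with fixed Hill coefficient to give EC50.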

For `O=C(NC[C@@H]1CCN(Cc2cc(Cl)cc(Cl)c2)C(=O)[C@H](CN2CCCC2)N1)c1ccc(Cl)c(Cl)c1` [Compound 371, 3,4-dichloro-N-(((3S,5S)-1-(3,5-dichlorobenzyl)-2-oxo-3-(pyrrolidin-1-ylmethyl)-1,4-diazepan-5-yl)methyl)benzamide], which IC50 is on record?
Its IC50 is less than 1000 nM.

`CCC(CC)CN1CC[C@@H](CNC(=O)c2ccc(Cl)c(C)c2)N[C@@H](CCN)C1=O` [Compound 352, N-(((3S,5S)-3-(2-aminoethyl)-1-(2-ethylbutyl)-2-oxo-1,4-diazepan-5-yl)methyl)-4-chloro-3-methylbenzamide] was tested. Which IC50 did it give?
Its IC50 is less than 10000 nM.

`N=C(N)NCCC[C@@H]1N[C@H](CNC(=O)c2ccc3cc(F)ccc3c2)CCN(CC(c2ccccc2)c2ccccc2)C1=O` [Compound 188, N-(((3S,5S)-1-(2,2-diphenylethyl)-3-(3-guanidinopropyl)-2-oxo-1,4-diazepan-5-yl)methyl)-6-fluoro-2-naphthamide] was tested. Which IC50 did it give?
Its IC50 is less than 100 nM.

How did the IC50 turn out when `N=C(N)NCCC[C@@H]1N[C@H](CNC(=O)/C=C/c2c(F)cccc2Cl)CCN(CC(c2ccccc2)c2ccccc2)C1=O` [Compound 209, (E)-3-(2-chloro-6-fluorophenyl)-N-(((3S,5S)-1-(2,2-diphenylethyl)-3-(3-guanidinopropyl)-2-oxo-1,4-diazepan-5-yl)methyl)acrylamide] was run?
The IC50 was less than 100 nM.

How did the IC50 turn out when `N=C(N)NCCC[C@@H]1N[C@H](CNC(=O)CCc2ccccc2)CCN(CC(c2ccccc2)c2ccccc2)C1=O` [Compound 143, N-(((3S,5S)-1-(2,2-diphenylethyl)-3-(3-guanidinopropyl)-2-oxo-1,4-diazepan-5-yl)methyl)-3-phenylpropanamide] was run?
Its IC50 is less than 1000 nM.

Which IC50 does the source give for `N=C(N)NCCC[C@@H]1N[C@H](CNC(=O)c2cnc3ccccc3c2)CCN(CC(c2ccccc2)c2ccccc2)C1=O` [Compound 112, N-(((3S,5S)-1-(2,2-diphenylethyl)-3-(3-guanidinopropyl)-2-oxo-1,4-diazepan-5-yl)methyl)quinoline-3-carboxamide] here?
Its IC50 is less than 100 nM.

How did the IC50 turn out when `N=C(N)NCCC[C@@H]1N[C@H](CNC(=O)c2ccc3ncsc3c2)CCN(CC(c2ccccc2)c2ccccc2)C1=O` [Compound 178, N-(((3S,5S)-1-(2,2-diphenylethyl)-3-(3-guanidinopropyl)-2-oxo-1,4-diazepan-5-yl)methyl)benzo[d]thiazole-6-carboxamide] was run?
The IC50 was less than 1000 nM.

With `CCC(CC)CN1CC[C@@H](CNC(=O)c2ccc(F)c(Cl)c2)N[C@@H](CCN)C1=O` [Compound 353, N-(((3S,5S)-3-(2-aminoethyl)-1-(2-ethylbutyl)-2-oxo-1,4-diazepan-5-yl)methyl)-3-chloro-4-fluorobenzamide] as the compound, how does the IC50 read?
The IC50 was less than 10000 nM.

How did the IC50 turn out when `NCC[C@@H]1N[C@H](CNC(=O)c2ccc(Cl)c(Cl)c2)CCN(CC(c2ccccc2)c2ccccc2)C1=O` [Compound 280, N-(((3S,5S)-3-(2-aminoethyl)-1-(2,2-diphenylethyl)-2-oxo-1,4-diazepan-5-yl)methyl)-3,4-dichlorobenzamide] was run?
Its IC50 is less than 1000 nM.

How did the IC50 turn out when `CCC(CN1CCC(CNC(=O)c2ccc3cc(Cl)ccc3c2)N[C@@H](C2CCNCC2)C1=O)c1ccccc1` (stereo partly drawn) [Compound 472, (S)-6-chloro-N-((2-oxo-1-(2-phenylbutyl)-3-(piperidin-4-yl)-1,4-diazepan-5-yl)methyl)-2-naphthamide] was run?
Its IC50 is less than 100 nM.

With `N=C(N)NCCC[C@@H]1N[C@H](CNC(=O)/C=C/c2cccc(F)c2)CCN(CC(c2ccccc2)c2ccccc2)C1=O` [Compound 173, (E)-N-(((3S,5S)-1-(2,2-diphenylethyl)-3-(3-guanidinopropyl)-2-oxo-1,4-diazepan-5-yl)methyl)-3-(3-fluorophenyl)acrylamide] as the compound, how does the IC50 read?
The IC50 was less than 100 nM.

How did the IC50 turn out when `CCN(CC)CC[C@@H]1N[C@H](CNC(=O)c2ccc3cc(F)ccc3c2)CCN(CC(c2ccccc2)c2ccccc2)C1=O` [Compound 25, N-(((3S,5S)-3-(2-(diethylamino)ethyl)-1-(2,2-diphenylethyl)-2-oxo-1,4-diazepan-5-yl)methyl)-6-fluoro-2-naphthamide] was run?
Its IC50 is less than 100 nM.

With `Cc1ccc(C(=O)NC[C@@H]2CCN(CC(c3ccccc3)c3ccccc3)C(=O)[C@H](CCN)N2)cc1C` [Compound 281, N-(((3S,5S)-3-(2-aminoethyl)-1-(2,2-diphenylethyl)-2-oxo-1,4-diazepan-5-yl)methyl)-3,4-dimethylbenzamide] as the compound, how does the IC50 read?
The IC50 was less than 1000 nM.

For `N=C(N)NCCC[C@@H]1N[C@H](CNC(=O)c2ccc3c(c2)OCO3)CCN(CC(c2ccccc2)c2ccccc2)C1=O` [Compound 148, N-(((3S,5S)-1-(2,2-diphenylethyl)-3-(3-guanidinopropyl)-2-oxo-1,4-diazepan-5-yl)methyl)benzo[d][1,3]dioxole-5-carboxamide], which IC50 is on record?
The IC50 was less than 1000 nM.

`N=C(N)NCCC[C@@H]1N[C@H](CNC(=O)Cc2ccc(Cl)cc2Cl)CCN(CC(c2ccccc2)c2ccccc2)C1=O` [Compound 155, 2-(2,4-dichlorophenyl)-N-(((3S,5S)-1-(2,2-diphenylethyl)-3-(3-guanidinopropyl)-2-oxo-1,4-diazepan-5-yl)methyl)acetamide] was tested. Which IC50 did it give?
Its IC50 is less than 1000 nM.

With `N=C(N)NCCC[C@@H]1N[C@H](CNC(=O)c2ccccc2)CCN(CC(c2ccccc2)c2ccccc2)C1=O` [Compound 115, N-(((3S,5S)-1-(2,2-diphenylethyl)-3-(3-guanidinopropyl)-2-oxo-1,4-diazepan-5-yl)methyl)benzamide] as the compound, how does the IC50 read?
The IC50 was less than 1000 nM.

Which IC50 does the source give for `NCCC[C@@H]1N[C@H](CNC(=O)/C=C/c2ccc(Br)cc2)CCN(CC(c2ccccc2)c2ccccc2)C1=O` [Compound 260, (E)-N-(((3S,5S)-3-(3-aminopropyl)-1-(2,2-diphenylethyl)-2-oxo-1,4-diazepan-5-yl)methyl)-3-(4-bromophenyl)acrylamide] here?
Its IC50 is less than 100 nM.

For `O=C(/C=C/c1ccc(Cl)cc1)NC[C@@H]1CCN(CC(c2ccccc2)c2ccccc2)C(=O)[C@H](CCNC(=O)CC2CCCCC2)N1` [Compound 307, (E)-3-(4-chlorophenyl)-N-(((3S,5S)-3-(2-(2-cyclohexylacetamido)ethyl)-1-(2,2-diphenylethyl)-2-oxo-1,4-diazepan-5-yl)methyl)acrylamide], which IC50 is on record?
Its IC50 is less than 1000 nM.

`O=C(/C=C/c1ccc(Cl)cc1)NC[C@@H]1CCN(CC(c2ccccc2)c2ccccc2)C(=O)[C@H](CCc2ccccc2)N1` [Compound 320, (E)-3-(4-chlorophenyl)-N-(((3S,5S)-1-(2,2-diphenylethyl)-2-oxo-3-phenethyl-1,4-diazepan-5-yl)methyl)acrylamide] was tested. Which IC50 did it give?
Its IC50 is less than 1000 nM.

How did the IC50 turn out when `N=C(N)NCCC[C@@H]1N[C@H](CNC(=O)C2CCc3ccccc3C2)CCN(CC(c2ccccc2)c2ccccc2)C1=O` (stereo partly drawn) [Compound 111, N-(((3S,5S)-1-(2,2-diphenylethyl)-3-(3-guanidinopropyl)-2-oxo-1,4-diazepan-5-yl)methyl)-1,2,3,4-tetrahydronaphthalene-2-carboxamide] was run?
The IC50 was less than 100 nM.

How did the IC50 turn out when `NCC[C@@H]1N[C@H](CNC(=O)/C=C/c2ccc(Cl)cc2)CCN(Cc2cc(Cl)cc(Cl)c2)C1=O` [Compound 326, (E)-N-(((3S,5S)-3-(2-aminoethyl)-1-(3,5-dichlorobenzyl)-2-oxo-1,4-diazepan-5-yl)methyl)-3-(4-chlorophenyl)acrylamide] was run?
Its IC50 is less than 100 nM.

With `O=C(/C=C/c1ccc(Cl)cc1)NC[C@@H]1CCN(CC(c2ccccc2)c2ccccc2)C(=O)[C@H](CCC2CCCCC2)N1` [Compound 322, (E)-3-(4-chlorophenyl)-N-(((3S,5S)-3-(2-cyclohexylethyl)-1-(2,2-diphenylethyl)-2-oxo-1,4-diazepan-5-yl)methyl)acrylamide] as the compound, how does the IC50 read?
Its IC50 is less than 1000 nM.

For `NCCCC[C@@H]1N[C@H](CNC(=O)c2ccc3ccccc3c2)CCN(CC(c2ccccc2)c2ccccc2)C1=O` [Compound 126, N-(((3S,5S)-3-(4-aminobutyl)-1-(2,2-diphenylethyl)-2-oxo-1,4-diazepan-5-yl)methyl)-2-naphthamide], which IC50 is on record?
Its IC50 is less than 1000 nM.

Which IC50 does the source give for `CCC(CC)CN1CC[C@@H](CNC(=O)/C=C/c2ccc(Cl)cc2)N[C@@H](CN2CCCCC2)C1=O` [Compound 355, (E)-3-(4-chlorophenyl)-N-(((3S,5S)-1-(2-ethylbutyl)-2-oxo-3-(piperidin-1-ylmethyl)-1,4-diazepan-5-yl)methyl)acrylamide] here?
Its IC50 is less than 1000 nM.

`NCCCC[C@@H]1N[C@H](CNC(=O)Cc2ccc3ccccc3c2)CCN(Cc2cccc3ccccc23)C1=O` [Compound 118, N-(((3S,5S)-3-(4-aminobutyl)-1-(naphthalen-1-ylmethyl)-2-oxo-1,4-diazepan-5-yl)methyl)-2-(naphthalen-2-yl)acetamide] was tested. Which IC50 did it give?
Its IC50 is less than 10000 nM.

How did the IC50 turn out when `O=C(NC[C@@H]1CCN(Cc2cc(Cl)cc(Cl)c2)C(=O)[C@H](CCN2CCCCC2)N1)c1ccc(Cl)c(Cl)c1` [Compound 343, 3,4-dichloro-N-(((3S,5S)-1-(3,5-dichlorobenzyl)-2-oxo-3-(2-(piperidin-1-yl)ethyl)-1,4-diazepan-5-yl)methyl)benzamide] was run?
The IC50 was less than 100 nM.

With `N=C(N)NCCC[C@@H]1N[C@H](CNC(=O)/C=C/c2ccccc2F)CCN(CC(c2ccccc2)c2ccccc2)C1=O` [Compound 194, (E)-N-(((3S,5S)-1-(2,2-diphenylethyl)-3-(3-guanidinopropyl)-2-oxo-1,4-diazepan-5-yl)methyl)-3-(2-fluorophenyl)acrylamide] as the compound, how does the IC50 read?
The IC50 was less than 100 nM.

`O=C(/C=C/c1ccc(Cl)cc1)NC[C@@H]1CCN(CC(c2ccccc2)c2ccccc2)C(=O)[C@H](CCCN2CCCCC2)N1` [Compound 262, (E)-3-(4-chlorophenyl)-N-(((3S,5S)-1-(2,2-diphenylethyl)-2-oxo-3-(3-(piperidin-1-yl)propyl)-1,4-diazepan-5-yl)methyl)acrylamide] was tested. Which IC50 did it give?
The IC50 was less than 100 nM.

`N=C(N)NCCC[C@@H]1N[C@H](CNC(=O)c2ccc3sccc3c2)CCN(CC(c2ccccc2)c2ccccc2)C1=O` [Compound 185, N-(((3S,5S)-1-(2,2-diphenylethyl)-3-(3-guanidinopropyl)-2-oxo-1,4-diazepan-5-yl)methyl)benzo[b]thiophene-5-carboxamide] was tested. Which IC50 did it give?
Its IC50 is less than 100 nM.

same assay, conditions: hMC5R binding assay as in Example 102; compounds tested as trifluoroacetate or hydrochloride salts, or as free base

With `CC[C@@H](CN1CC[C@H](CNC(=O)c2ccc3cc(Cl)ccc3c2)N[C@H](CCN2CCCCC2)C1=O)c1ccccc1` [Compound 580, 6-chloro-N-(((3R,5R)-2-oxo-1-((R)-2-phenylbutyl)-3-(2-(piperidin-1-yl)ethyl)-1,4-diazepan-5-yl)methyl)-2-naphthamide] as the compound, how does the IC50 read?
Its IC50 is less than 1000 nM.
